PMC4766392, “Identification and Characterization of the Glucose-6-Phosphate Dehydrogenase Gene Family in the Para Rubber Tree, Hevea brasiliensis” (Frontiers in Plant Science, 2016)

Legend:
Experiment in all cases: NADPH formation at […] nm, commercial kit, E. coli supernatant
Type in all cases: biochemical
Details in all cases: 25°C, MBP fusion, empty-vector control
[1] = molecular target: T1, HbG6PDH1 (Hevea brasiliensis, UniProt A0A068LLN2)
T1 construct: gene G6PDH-1; forward primer starts at ATGCCAAGAAAATATGG

[2] = molecular target: T2, HbG6PDH3 (Hevea brasiliensis, UniProt A0A068LJY6)
T2 construct: gene G6PDH-3; primer with start codon ATGGGTTCGGGTCAGTGG

[3] = molecular target: T3, HbG6PDH4 (Hevea brasiliensis, UniProt A0A068LJB4)
T3 construct: gene G6PDH-4; primer with start codon ATGTCGATGTCAATTTC

[4] = molecular target: T4, HbG6PDH2 (Hevea brasiliensis, UniProt A0A068LJJ9)
T4 construct: gene G6PDH-2; forward primer starts at ATGGCGCCCCTTTC

[5] = glucose-6-phosphate as co-substrate

T2 sequence (A0A068LJY6 entry or part of it): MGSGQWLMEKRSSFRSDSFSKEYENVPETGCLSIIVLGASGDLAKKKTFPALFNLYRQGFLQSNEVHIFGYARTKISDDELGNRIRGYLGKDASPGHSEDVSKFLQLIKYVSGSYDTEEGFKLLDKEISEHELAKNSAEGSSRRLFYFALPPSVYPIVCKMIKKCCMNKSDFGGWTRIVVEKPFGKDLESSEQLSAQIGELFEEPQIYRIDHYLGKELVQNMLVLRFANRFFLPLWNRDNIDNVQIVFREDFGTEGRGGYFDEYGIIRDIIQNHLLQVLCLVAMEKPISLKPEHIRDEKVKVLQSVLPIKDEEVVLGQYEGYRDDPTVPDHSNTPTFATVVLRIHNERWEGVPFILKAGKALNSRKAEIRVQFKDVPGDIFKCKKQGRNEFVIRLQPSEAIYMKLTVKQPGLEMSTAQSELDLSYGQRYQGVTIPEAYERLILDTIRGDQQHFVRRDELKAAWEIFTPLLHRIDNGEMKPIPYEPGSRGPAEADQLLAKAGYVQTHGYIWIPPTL
T3 sequence (A0A068LJB4 entry or part of it): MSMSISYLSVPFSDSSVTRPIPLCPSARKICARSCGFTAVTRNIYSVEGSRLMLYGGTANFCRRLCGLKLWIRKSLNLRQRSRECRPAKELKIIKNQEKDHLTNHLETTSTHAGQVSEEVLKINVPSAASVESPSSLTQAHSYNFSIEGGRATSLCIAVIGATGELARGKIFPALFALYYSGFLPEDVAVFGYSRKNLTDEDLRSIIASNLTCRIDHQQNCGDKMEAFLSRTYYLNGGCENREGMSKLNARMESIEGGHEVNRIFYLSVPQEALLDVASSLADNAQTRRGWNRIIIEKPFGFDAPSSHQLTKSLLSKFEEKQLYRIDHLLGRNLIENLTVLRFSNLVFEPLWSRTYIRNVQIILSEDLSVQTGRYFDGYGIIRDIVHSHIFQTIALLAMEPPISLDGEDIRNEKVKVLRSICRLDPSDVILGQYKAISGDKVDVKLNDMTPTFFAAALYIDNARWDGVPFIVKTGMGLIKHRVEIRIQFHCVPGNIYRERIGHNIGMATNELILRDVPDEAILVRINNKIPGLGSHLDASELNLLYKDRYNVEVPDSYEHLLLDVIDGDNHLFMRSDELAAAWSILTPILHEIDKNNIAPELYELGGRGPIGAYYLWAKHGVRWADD
T1 sequence (A0A068LLN2 entry or part of it): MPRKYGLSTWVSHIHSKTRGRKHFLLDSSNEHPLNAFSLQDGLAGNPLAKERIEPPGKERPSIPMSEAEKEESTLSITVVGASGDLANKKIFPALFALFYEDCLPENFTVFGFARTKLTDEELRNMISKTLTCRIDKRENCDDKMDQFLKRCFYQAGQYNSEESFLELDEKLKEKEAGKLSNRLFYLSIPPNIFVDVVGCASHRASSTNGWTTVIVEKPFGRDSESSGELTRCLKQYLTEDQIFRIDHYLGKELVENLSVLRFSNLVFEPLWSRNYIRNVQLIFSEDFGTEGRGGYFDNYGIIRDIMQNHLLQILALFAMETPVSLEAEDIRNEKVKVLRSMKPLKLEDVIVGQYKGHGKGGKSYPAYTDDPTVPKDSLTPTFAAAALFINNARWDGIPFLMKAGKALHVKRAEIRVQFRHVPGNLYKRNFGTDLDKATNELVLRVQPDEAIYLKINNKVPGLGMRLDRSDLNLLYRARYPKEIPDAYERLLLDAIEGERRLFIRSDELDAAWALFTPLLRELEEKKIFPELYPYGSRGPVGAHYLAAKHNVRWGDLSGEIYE
T4 sequence (A0A068LJJ9 entry or part of it): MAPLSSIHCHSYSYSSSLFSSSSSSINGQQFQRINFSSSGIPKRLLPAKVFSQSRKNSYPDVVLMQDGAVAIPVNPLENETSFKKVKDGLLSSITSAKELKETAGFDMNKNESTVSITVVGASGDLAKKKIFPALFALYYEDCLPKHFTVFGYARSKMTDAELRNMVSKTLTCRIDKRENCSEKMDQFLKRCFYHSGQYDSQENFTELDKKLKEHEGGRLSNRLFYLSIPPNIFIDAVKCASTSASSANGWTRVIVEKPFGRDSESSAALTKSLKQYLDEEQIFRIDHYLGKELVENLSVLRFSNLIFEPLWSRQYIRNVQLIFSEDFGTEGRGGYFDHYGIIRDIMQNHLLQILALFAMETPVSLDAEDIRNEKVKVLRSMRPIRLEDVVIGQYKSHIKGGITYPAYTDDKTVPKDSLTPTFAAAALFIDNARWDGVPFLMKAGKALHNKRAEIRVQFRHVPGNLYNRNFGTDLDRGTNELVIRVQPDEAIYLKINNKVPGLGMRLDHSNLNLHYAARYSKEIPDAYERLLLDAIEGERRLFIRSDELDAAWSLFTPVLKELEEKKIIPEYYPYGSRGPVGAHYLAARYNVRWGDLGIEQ

Row | SMILES | NADPH formation at 340 nm, commercial kit, E. coli supernatant ([1]; NADP+ as co-substrate) | NADPH formation at 340 nm, commercial kit, E. coli supernatant ([2]; NADP+ as co-substrate) | NADPH formation at 340 nm, commercial kit, E. coli supernatant ([3]; NADP+ as co-substrate) | NADPH formation at 340 nm, commercial kit, E. coli supernatant ([4]; NADP+ as co-substrate) | NADPH formation at 340 nm, commercial kit, E. coli supernatant [1, 5] | NADPH formation at 340 nm, commercial kit, E. coli supernatant [2, 5] | NADPH formation at 340 nm, commercial kit, E. coli supernatant [3, 5] | NADPH formation at 340 nm, commercial kit, E. coli supernatant [4, 5]
1 | O=P(O)(O)OC[C@H]1OC(O)[C@H](O)[C@@H](O)[C@@H]1O (some centres unmarked) [glucose-6-phosphate] | all four HbG6PDH genes encode enzymatically active G6PDHs | all four HbG6PDH genes encode enzymatically active G6PDHs | all four HbG6PDH genes encode enzymatically active G6PDHs | all four HbG6PDH genes encode enzymatically active G6PDHs | – | – | – | –
2 | NC(=O)c1ccc[n+]([C@@H]2O[C@H](COP(=O)(O)OP(=O)(O)OC[C@H]3O[C@@H](n4cnc5c(N)ncnc54)[C@H](OP(=O)(O)O)[C@@H]3O)[C@@H](O)[C@H]2O)c1 [NADP^+] | – | – | – | – | all four HbG6PDH genes encode enzymatically active G6PDHs | all four HbG6PDH genes encode enzymatically active G6PDHs | all four HbG6PDH genes encode enzymatically active G6PDHs | all four HbG6PDH genes encode enzymatically active G6PDHs
